According to ChEMBL document CHEMBL1201862, “PubChem BioAssay data set” (2004):
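48-hour exposure; five concentrations; linearly interpolated endpoints. Here, GI50 denotes the concentration required for 50% inhibition of growth.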 Activity calls are given as the source filed them. Cut-off read from the data, not from the text of the source: active = GI50 up to about 1.1 µM and inactive = higher.

Key:
Experiment in all cases: inhibition of tumour cell growth, NCI panel, 48 h
OVCAR-5 = tested on: OVCAR-5
DMS-273 = tested on: DMS-273
IGROV-1 = tested on: IGROV-1
SNB-78 = tested on: SNB-78
XF498 = tested on: XF498
MOLT-4 = tested on: MOLT-4
ACHN = tested on: ACHN
CAKI-1 = tested on: CAKI-1
NCI-H460 = tested on: NCI-H460
NCI-H226 = tested on: NCI-H226
SF-268 = tested on: SF-268
SNB-75 = tested on: SNB-75
BT-549 = tested on: BT-549
UACC-62 = tested on: UACC-62
MDA-N = tested on: MDA-N
PC-3 = tested on: PC-3
MDA-MB-231 = tested on: MDA-MB-231
SK-OV-3 = tested on: SK-OV-3
Hs-578T = tested on: Hs-578T
786-0 = tested on: 786-0

CCOC(=O)C(C(=O)OCC)c1cc(-c2cc3ccccc3o2)oc(=O)c1C#N
GI50 (OVCAR-5): 18.5 µM (inactive) | GI50 (DMS-273): 25.9 µM (inactive) | GI50 (IGROV-1): 24.9 µM (inactive) | GI50 (SNB-78): 18 µM (inactive) | GI50 (XF498): 19 µM (inactive) | GI50 (MOLT-4): 21.6 µM (inactive) | GI50 (ACHN): 34.6 µM (inactive) | GI50 (CAKI-1): 17.4 µM (inactive) | GI50 (NCI-H460): 30.2 µM (inactive) | GI50 (NCI-H226): 21.1 µM (inactive) | GI50 (SF-268): 34.9 µM (inactive) | GI50 (SNB-75): 26.2 µM (inactive)

Brc1ccccc1-c1ncc(-c2ccccc2)o1
GI50 (OVCAR-5): 66.5 µM (inactive) | GI50 (IGROV-1): 19.2 µM (inactive) | GI50 (BT-549): 29.2 µM (inactive) | GI50 (MOLT-4): 14.2 µM (inactive) | GI50 (ACHN): 33.6 µM (inactive) | GI50 (UACC-62): 32.2 µM (inactive) | GI50 (CAKI-1): 32.1 µM (inactive) | GI50 (MDA-N): 31 µM (inactive) | GI50 (PC-3): 34.2 µM (inactive) | GI50 (NCI-H460): 29.9 µM (inactive) | GI50 (MDA-MB-231): 38 µM (inactive) | GI50 (SF-268): 27.9 µM (inactive) | GI50 (SK-OV-3): 31.1 µM (inactive) | GI50 (Hs-578T): 10.3 µM (inactive) | GI50 (SNB-75): 20.6 µM (inactive)

CCOC(=O)C(OP(=O)(OCC)OCC)C(F)(F)F (configuration not stated)
GI50 (OVCAR-5): > 100 µM (inactive) | GI50 (BT-549): > 100 µM (inactive) | GI50 (MOLT-4): > 100 µM (inactive) | GI50 (ACHN): > 100 µM (inactive) | GI50 (UACC-62): > 100 µM (inactive) | GI50 (MDA-N): > 100 µM (inactive) | GI50 (NCI-H460): > 100 µM (inactive) | GI50 (NCI-H226): > 100 µM (inactive) | GI50 (MDA-MB-231): > 100 µM (inactive) | GI50 (SF-268): > 100 µM (inactive) | GI50 (SK-OV-3): > 100 µM (inactive) | GI50 (Hs-578T): > 100 µM (inactive) | GI50 (SNB-75): > 100 µM (inactive)

COc1cccc2c1C(=O)c1c(O)c3c(c(O)c1C2=O)C[C@@](O)(C(C)=O)C[C@@H]3OC1CC(O)C(O)C(C)O1 (some centres not stated)
GI50 (OVCAR-5): 1.04 µM (active) | GI50 (DMS-273): 0.253 µM (active) | GI50 (IGROV-1): 3.05 µM (inactive) | GI50 (SNB-78): 4.42 µM (inactive) | GI50 (BT-549): 3.33 µM (inactive) | GI50 (MOLT-4): 0.0208 µM (active) | GI50 (ACHN): 0.543 µM (active) | GI50 (UACC-62): 1.04 µM (active) | GI50 (786-0): 1.57 µM (inactive) | GI50 (CAKI-1): 0.789 µM (active) | GI50 (MDA-N): 8.71 µM (inactive) | GI50 (PC-3): 4.95 µM (inactive) | GI50 (NCI-H460): 0.124 µM (active) | GI50 (NCI-H226): 0.289 µM (active) | GI50 (MDA-MB-231): 8.65 µM (inactive) | GI50 (SF-268): 1.08 µM (active) | GI50 (SK-OV-3): 4.51 µM (inactive) | GI50 (Hs-578T): 0.998 µM (active) | GI50 (SNB-75): 1.62 µM (inactive)

NCc1ccc(O)c(O)c1
GI50 (OVCAR-5): > 100 µM (inactive) | GI50 (IGROV-1): 60.1 µM (inactive) | GI50 (BT-549): > 100 µM (inactive) | GI50 (MOLT-4): 27.1 µM (inactive) | GI50 (ACHN): > 100 µM (inactive) | GI50 (UACC-62): > 100 µM (inactive) | GI50 (786-0): > 100 µM (inactive) | GI50 (CAKI-1): > 100 µM (inactive) | GI50 (MDA-N): > 100 µM (inactive) | GI50 (PC-3): > 100 µM (inactive) | GI50 (NCI-H460): > 100 µM (inactive) | GI50 (NCI-H226): > 100 µM (inactive) | GI50 (MDA-MB-231): > 100 µM (inactive) | GI50 (SK-OV-3): > 100 µM (inactive) | GI50 (SNB-75): > 100 µM (inactive)

O=C(NC(Cc1ccc(I)cc1)C(=O)O)c1ccc(Br)cc1 (configuration not stated)
GI50 (OVCAR-5): > 100 µM (inactive) | GI50 (DMS-273): > 100 µM (inactive) | GI50 (IGROV-1): > 100 µM (inactive) | GI50 (SNB-78): > 100 µM (inactive) | GI50 (XF498): > 77.6 µM (inactive) | GI50 (MOLT-4): > 72.9 µM (inactive) | GI50 (UACC-62): > 67.3 µM (inactive) | GI50 (CAKI-1): > 100 µM (inactive) | GI50 (NCI-H460): 98.6 µM (inactive) | GI50 (NCI-H226): > 100 µM (inactive) | GI50 (SF-268): > 100 µM (inactive) | GI50 (SK-OV-3): > 100 µM (inactive) | GI50 (SNB-75): 30.1 µM (inactive)

Clc1ccccc1/C=C/c1cscn1
GI50 (OVCAR-5): > 100 µM (inactive) | GI50 (SNB-78): > 100 µM (inactive) | GI50 (XF498): > 100 µM (inactive) | GI50 (MOLT-4): > 100 µM (inactive) | GI50 (ACHN): > 100 µM (inactive) | GI50 (UACC-62): > 100 µM (inactive) | GI50 (NCI-H460): > 100 µM (inactive) | GI50 (SF-268): > 100 µM (inactive) | GI50 (SK-OV-3): > 100 µM (inactive) | GI50 (SNB-75): > 100 µM (inactive)

O=C1[C@@H]2C(c3c(Cl)cccc3Cl)=NO[C@@H]2C(=O)N1c1ccc(Cc2ccc(N3C(=O)[C@H]4C(c5c(Cl)cccc5Cl)=NO[C@H]4C3=O)cc2)cc1
GI50 (OVCAR-5): > 100 µM (inactive) | GI50 (DMS-273): > 100 µM (inactive) | GI50 (IGROV-1): > 100 µM (inactive) | GI50 (SNB-78): > 100 µM (inactive) | GI50 (XF498): > 100 µM (inactive) | GI50 (MOLT-4): > 100 µM (inactive) | GI50 (ACHN): > 100 µM (inactive) | GI50 (UACC-62): > 100 µM (inactive) | GI50 (786-0): > 100 µM (inactive) | GI50 (CAKI-1): > 100 µM (inactive) | GI50 (NCI-H460): > 100 µM (inactive) | GI50 (NCI-H226): > 100 µM (inactive) | GI50 (SF-268): > 100 µM (inactive) | GI50 (SK-OV-3): > 100 µM (inactive) | GI50 (SNB-75): > 100 µM (inactive)

NC(=O)N/N=C\CC(O)(C(F)(F)Cl)C(F)(F)Cl
GI50 (IGROV-1): > 10 µM (inactive) | GI50 (MOLT-4): > 10 µM (inactive) | GI50 (ACHN): > 10 µM (inactive) | GI50 (UACC-62): > 10 µM (inactive) | GI50 (786-0): > 10 µM (inactive) | GI50 (CAKI-1): > 10 µM (inactive) | GI50 (MDA-N): > 10 µM (inactive) | GI50 (PC-3): > 10 µM (inactive) | GI50 (NCI-H460): > 10 µM (inactive) | GI50 (NCI-H226): > 10 µM (inactive) | GI50 (MDA-MB-231): > 10 µM (inactive) | GI50 (SF-268): > 10 µM (inactive) | GI50 (SK-OV-3): > 10 µM (inactive) | GI50 (Hs-578T): > 10 µM (inactive) | GI50 (SNB-75): > 10 µM (inactive)
